This data set can be described thus: solvent given as SMILES.

`O=C(O)COc1ccc2[nH]c3c(c2c1)CCCC3=O`: the fluorescence lifetime runs as follows: (in C1CCOC1) 0.319 ns; (in C1COCCO1) 0.537 ns; (in CC#N) 0.969 ns; (in CCCCCCCCCCCCO) 1.16 ns; (in CCCCCCCCCCO) 1.14 ns; (in CCCCCCCCO) 1.19 ns. Further, the fluorescence lifetime was 1.21 ns (in CCCCCCO); 1.11 ns (in CCCCO); 1.52 ns (in CCO); 0.464 ns (in CCOC(C)=O); 1.91 ns (in CN(C)C=O); 1.72 ns (in CO). This compound came in with a fluorescence lifetime (in CS(C)=O) of 2.34 ns, a fluorescence lifetime (in Cc1ccccc1) of 0.585 ns, a fluorescence lifetime (in O) of 1.77 ns and a fluorescence lifetime (in c1ccccc1) of 0.632 ns.
Turning to `CC1=[N+]2C(=C(c3ccc(N(c4ccccc4)c4ccccc4)cc3)c3ccc(C)n3[B-]2(F)F)C=C1c1cc2n(c1)[B-](F)(F)[N+]1=CC=CC1=C2c1c(C)cc(C)cc1C`, the fluorescence lifetime came out at 2.6 ns (in C1CCCCC1) and 0.72 ns (in CCOC(C)=O).
Turning to `CC1=N/C(=C\c2cc(N(C)C)ccc2C#N)C(=O)N1C`, the fluorescence lifetime was determined as 14.8 ns (in C1CCOC1), 7 ns (in CC#N) and 24.7 ns (in CCCCCC).
Take `O=Cc1ccc2c(c1)c1ccccc1n2-c1ccc(-c2ccc(-n3c4ccccc4c4cc(C=O)ccc43)cc2)cc1`: the fluorescence lifetime (in ClCCl) came out at 1 ns.
In the case of `CCOC(=O)C1CC(c2c(C#N)c(C)nn2-c2ccccc2)=CN1c1ccc(Br)cc1` (stereo not drawn), the fluorescence lifetime runs as follows: (in C1CCOC1) 5.02 ns; (in C1COCCO1) 5.29 ns; (in CC#N) 4.91 ns; (in CCCCCCC) 4.54 ns; (in CCO) 3.66 ns; (in O) 4.2 ns. The fluorescence lifetime reads like this: (in OCC(O)CO) 2.17 ns; (in OCCO) 2.8 ns.
Where the note is “in ClC(Cl)Cl”, `CCCCc1cc(-c2cccc(COC)c2)oc1-c1cccc(COC)c1` displayed a fluorescence lifetime of 1.35 ns.
Take `CCc1c(C)[nH]c(C2=[N+]3C(=C(C)c4c(C)c(CC)c(C)n4[B-]3(F)F)c3ccccc32)c1C`: for the setting “in ClCCl”, the fluorescence lifetime turned out to be 6.21 ns.
The compound `C(#Cc1ccccc1C#Cc1ccccc1)c1ccccc1` gave a fluorescence lifetime (in CC#N) of 1.47 ns.
`CCCCCCOc1cc(/C=C/c2cc(OCCCCCC)c(/C=C/c3cc(OCCCCCC)c(C=C4C(=O)c5ccccc5C4=O)cc3OCCCCCC)cc2OCCCCCC)c(OCCCCCC)cc1C=C1C(=O)c2ccccc2C1=O`: for the setting “in ClCCl”, the fluorescence lifetime was found to be 1.22 ns.
`CCC1(CC)c2cc(/C=C/c3cccs3)ccc2-c2c1c1c(c3c2C(CC)(CC)c2cc(/C=C/c4cccs4)ccc2-3)C(CC)(CC)c2cc(/C=C/c3cccs3)ccc2-1` displayed a fluorescence lifetime (in C1CCOC1) of 1.6 ns.
Regarding `Oc1ccccc1-c1nc2c(c3c1-c1ccccc1CC3)-c1ccccc1CC2`, the fluorescence lifetime (in ClCCl) came out at 2.75 ns.
Compound `CC1=CC(C)=[N+]2C1=Cc1c3ccccc3c(C#Cc3ccccc3)n1[B-]2(F)F` gave a fluorescence lifetime (in CCCCCC) of 5.41 ns, a fluorescence lifetime (in CCCCCCCCO) of 5.13 ns, a fluorescence lifetime (in CCOC(C)=O) of 5.3 ns and a fluorescence lifetime (in CN(C)C=O) of 4.82 ns.
As to `COc1ccc(-c2csc(/C(C#N)=C/c3ccc(Cl)cc3)n2)cc1`, the fluorescence lifetime (in CC#N) was 3.61 ns.
On to `COc1ccc(C2=CC(c3ccc(OC)cc3)=[O+][B-](C(C)=O)(C(C)=O)O2)cc1`, for which the fluorescence lifetime by setting is: (in CC#N) 2.1 ns; (in ClC(Cl)(Cl)Cl) 2.1 ns.
Consider `O=S(=O)(c1ccc(-c2ccc(-n3c4ccccc4c4ccccc43)cc2)cc1)c1ccc(-c2ccc(-n3c4ccccc4c4ccccc43)cc2)cc1`, for which the fluorescence lifetime (in Cc1ccccc1) turned out to be 2.55 ns.
Turning to `O=S(=O)([O-])c1ccc([O-])c2ccccc12`, the fluorescence lifetime (in O) amounted to 15 ns.
Take `N#C/C(=C\c1ccncc1)c1nc(-c2ccc(Cl)cc2)cs1`: the fluorescence lifetime (in CC#N) turned out to be 4.24 ns.
Take `FC(F)(F)C(F)(F)C(F)(F)C1=NC2=C(c3ccccc3)C=C3c4cc(-c5ccccc5)c5nc(C(F)(F)C(F)(F)C(F)(F)F)nc6c(-c7ccccc7)cc(c4c56)=C4C=C(c5ccccc5)C(=N1)C2C34` (stereo not drawn): the fluorescence lifetime (in C1CCOC1) was determined as 3.2 ns.
Where the note is “in ClCCl”, `COc1ccc(-c2cc3c(s2)c(C(C)=O)cc(=O)n3Cc2ccccc2)cc1` registered a fluorescence lifetime of 1.94 ns.
Regarding `c1ccc(/C(=C(\c2ccccc2)c2cc(-c3ccccc3)ccc2-c2ccc(-c3ccccc3)cc2)c2cc(-c3ccccc3)ccc2-c2ccc(-c3ccccc3)cc2)cc1`, the fluorescence lifetime (in C1CCOC1) worked out at 7.9 ns.
As to `COc1ccc(C2=C3C=c4c(oc5ccccc45)=[N+]3[B-](F)(F)n3c2cc2c4ccccc4oc23)cc1`, the fluorescence lifetime is, setting by setting: (in C1CCCCC1) 4.1 ns; (in CCOC(C)=O) 4.22 ns; (in CO) 4.14 ns.
With `Cn1nc(-c2ccccc2)c2n[nH]nc2c1=O`, the fluorescence lifetime came out at 2 ns (in CC#N), 1.9 ns (in CCO) and 1.2 ns (in Cc1ccccc1).
On to `N#Cc1ccc(-c2ccc3c(c2)c2cc(-c4ccc(C#N)cc4)ccc2c2c3nc(-c3ccc(-c4ccc(N(c5ccccc5)c5ccccc5)cc4)cc3)n2-c2ccccc2)cc1`, for which the fluorescence lifetime reads like this: (in C1CCOC1) 1.51 ns; (in CC#N) 2.86 ns; (in CCCCCC) 1.04 ns; (in CCOCC) 1.29 ns.
With `Cc1cc(C)c(B(c2cc3ccc4cccc5ccc(c2)c3c45)c2c(C)cc(C)cc2C)c(C)c1`, the fluorescence lifetime (in Cc1ccccc1) turned out to be 49 ns.
With `Cc1ccc2c(c1)C1(c3ccccc3Oc3ccccc31)c1cc(C)ccc1N2c1ccc(-c2ncccn2)cc1`, the fluorescence lifetime (in O=P(c1ccccc1)(c1ccccc1)c1ccc2oc3ccc(P(=O)(c4ccccc4)c4ccccc4)cc3c2c1) is 11 ns.
Turning to `N#Cc1nc2c3ccc(N(c4ccccc4)c4ccccc4)cc3c3cc(N(c4ccccc4)c4ccccc4)ccc3c2nc1C#N`, the fluorescence lifetime (in O=P(c1ccccc1)(c1ccccc1)c1cccc(-c2cc(-n3c4ccccc4c4ccccc43)cc(-n3c4ccccc4c4ccccc43)c2)n1) came out at 13.4 ns.
Turning to `O=C(O)CCCCCn1c2ccc(Br)cc2c(=O)c2cc(Br)ccc21`, the fluorescence lifetime (in O) was 6 ns.
Same read-out and setting: the figure for `O=S(=O)([O-])c1cc(S(=O)(=O)Cl)ccc1C1=c2cc3c4c(c2Oc2c1cc1c5c2CCCN5CCC1)CCC[N+]=4CCC3` is 4.2 ns.
In turn, `CCCCOC(=O)c1cc(Cl)c2c3c(Cl)cc4c5c(cc(Cl)c(c6c(Cl)cc(C(=O)OCCCC)c1c26)c53)C(=O)N(c1c(C(C)C)cccc1C(C)C)C4=O` returned a fluorescence lifetime (in Cc1ccccc1) of 4.86 ns.
On the same count and under the same terms, next, `COC(=O)/C(C#N)=c1\s/c(=c2/s/c(=C(/C#N)C(=O)OC)c3cc(-c4ccc5c(c4)C(C)(C)c4ccccc4-5)sc23)c2sc(-c3ccc4c(c3)C(C)(C)c3ccccc3-4)cc12`: 4.38 ns.
Take `CNc1ccc2c(c1)-c1ccccc1C2=O`: the fluorescence lifetime by setting is: (in CC#N) 4.3 ns; (in c1ccccc1) 9.4 ns.
In turn, `CCN(CC)c1ccc2c(-c3ccccc3C(=O)O)c3c([o+]c2c1)/C(=C/c1ccc(N2CCCC2)s1)CCC3` displayed a fluorescence lifetime (in ClCCl) of 0.16 ns.
The compound `N#Cc1c(-n2c3ccccc3c3ccccc32)c(-n2c3ccccc3c3ccccc32)c(C#N)c(-n2c3ccccc3c3ccccc32)c1-n1c2ccccc2c2ccccc21` had a fluorescence lifetime (in Cc1ccccc1) of 8.8 ns.
Compound `COc1cc2c(cc1-c1cccs1)Cc1c3c(c4c(c1-2)-c1cc(OC)c(-c2cccs2)cc1C4)C(=O)N(CCC(C)C)C3=O` yielded a fluorescence lifetime (in C1CCOC1) of 3.18 ns.
Where the note is “in ClCCl”, `CC(C)(C)c1ccc2c(c1)c1cc(C(C)(C)C)ccc1n2-c1ccc(C#Cc2ccc3c4ccc(C#Cc5ccc(/C=C(/C#N)C(=O)O)cc5)cc4n(-c4ccc(C(F)(F)F)cc4)c3c2)cc1` showed a fluorescence lifetime of 1.27 ns.
`N#CC(C#N)=C(c1ccc(-n2ccc3ccccc32)cc1)c1ccc(-n2ccc3ccccc32)cc1` gave a fluorescence lifetime (in Cc1ccccc1) of 5.2 ns.
In turn, `[NH3+]c1cc([NH3+])cc(-c2nc3ccccc3s2)c1` returned a fluorescence lifetime (in O) of 0.59 ns.
In turn, `c1ccc([B-]2(c3ccccc3)Oc3ccc4ccccc4c3-c3c4ccccc4cc[n+]32)cc1` registered a fluorescence lifetime (in Cc1ccccc1) of 9.47 ns.
Compound `N#Cc1cc(C#Cc2c(F)c(F)nc(F)c2F)c(C#Cc2c(F)c(F)nc(F)c2F)cc1C#N` gave a fluorescence lifetime (in CC#N) of 3.92 ns.
Under “in C1CCOC1”, `FC(F)(F)C(F)(F)C(F)(F)C1=NC2=C(Br)C=C3c4cc(Br)c5nc(C(F)(F)C(F)(F)C(F)(F)F)nc6c(Br)cc(c4c56)=C4C=C(Br)C(=N1)C2C34` (stereo not drawn) gave a fluorescence lifetime of 2.1 ns.
For `O=C([O-])c1ccc(C2=c3cc4c5c(c3Oc3c2cc2c6c3CCCN6CCC2)CCC[N+]=5CCC4)c(C(=O)[O-])c1`, the fluorescence lifetime (in CCO) came to 4.87 ns and the fluorescence lifetime (in O) came to 4.36 ns.
For the compound `CCN(CC)c1ccc2c(-c3ccccc3C(=O)O)c3c([o+]c2c1)/C(=C/c1nc(-c2ccccc2)n2ccccc12)CCC3`, the fluorescence lifetime (in ClCCl) came to 2.97 ns.
Consider `CSc1sc(C(=O)c2ccccc2)c2nn[nH]c(=O)c12`, for which the fluorescence lifetime is, setting by setting: (in C1CCOC1) 0.33 ns; (in CC#N) 0.41 ns; (in CCO) 0.28 ns; (in CN(C)C=O) 0.19 ns; (in CO) 0.22 ns; (in CS(C)=O) 0.13 ns.
For the setting “in ClC(Cl)Cl”, `c1ccc(N(c2ccccc2)c2ccc(-c3ccc(-c4ccc(-c5ccc(-c6ccc(N(c7ccccc7)c7ccccc7)cc6)s5)c5nsnc45)s3)cc2)cc1` had a fluorescence lifetime of 5.13 ns.
Regarding `F[B-]1(F)n2c(-c3cccs3)cc(-c3cccs3)c2N=C2C(c3cccs3)=CC(c3cccs3)=[N+]21`, the fluorescence lifetime is 1.95 ns (in C1CCOC1); 2.23 ns (in CC#N); 2.31 ns (in CS(C)=O); 2.21 ns (in Cc1ccccc1); 2.36 ns (in ClCCl).
On to `Cc1cc(=O)oc2cc3c(cc12)c1c2ccccc2c2ccccc2c1c1c2ccccc2c2ccccc2c31`, for which the fluorescence lifetime (in ClC(Cl)Cl) worked out at 10.7 ns.
With `C(=C\c1ccc(-c2ccc(/C=C/c3ccc(-n4c5ccccc5c5ccccc54)cc3)s2)s1)/c1ccc(-n2c3ccccc3c3ccccc32)cc1`, the fluorescence lifetime is, setting by setting: (in C1CCOC1) 1.06 ns; (in CC#N) 1.08 ns; (in CC(C)=O) 1.08 ns; (in CN(C)C=O) 1.08 ns; (in Cc1ccccc1) 1.05 ns.

Source of the values: the Deep4Chem optical property database.
